Laboratory results: patent publication US20170037028A1 (BAYER PHARMA AKTIENGESELLSCHAFT, priority 2013, published 2017)

What follows are molecules tested against T1, GLUT1 (Homo sapiens, UniProt P11166) (assay: Indirect measurement of GLUT1 activity by quantification of intracellular ATP levels (glucose induced ATP increase)). Settings: read-out: IC50 regarding glucose induced ATP increase (GLUT1 inhibition).
T1 sequence (P11166 1-492): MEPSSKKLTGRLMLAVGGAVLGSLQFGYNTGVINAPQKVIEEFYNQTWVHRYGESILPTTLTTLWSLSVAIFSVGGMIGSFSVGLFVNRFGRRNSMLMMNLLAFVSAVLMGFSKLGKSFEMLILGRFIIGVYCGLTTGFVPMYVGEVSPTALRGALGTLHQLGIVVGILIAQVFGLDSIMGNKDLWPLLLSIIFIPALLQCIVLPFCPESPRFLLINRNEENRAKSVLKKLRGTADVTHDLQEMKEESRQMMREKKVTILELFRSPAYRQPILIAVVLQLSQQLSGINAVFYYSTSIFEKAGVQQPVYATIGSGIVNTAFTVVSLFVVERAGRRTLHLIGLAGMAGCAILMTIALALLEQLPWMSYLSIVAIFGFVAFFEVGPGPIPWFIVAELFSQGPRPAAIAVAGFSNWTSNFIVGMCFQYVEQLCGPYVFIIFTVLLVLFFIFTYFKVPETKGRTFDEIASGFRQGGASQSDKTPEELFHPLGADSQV
Format: cell-based
Parameters: endogenous in cells; host or cells: DLD1 or CHO-K1
How it was run: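 DLD1 or CHO-K1 cells were starved overnight in glucose-free medium with 1% FCS, then combined with an oxidative phosphorylation inhibitor. GLUT1 activity was read as glucose-induced ATP increase, GLUT2 as fructose-induced. Intracellular ATP was quantified by CellTiter-Glo luminescence.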
For `Cc1nn(Cc2ccc(C(=O)N3CCOCC3)cc2)c(C)c1NC(=O)c1cc(C(F)(F)F)nc2ccc(Br)cc12` [Example 141, 6-bromo-N-{3,5-dimethyl-1-[4-(morpholin-4-ylcarbonyl)benzyl]-1H-pyrazol-4-yl}-2-(trifluoromethyl)quinoline-4-carboxamide], the IC50 was 69.4 nM. Molecule `Cc1cnc2ccccc2c1C(=O)Nc1c(C)nn(Cc2ccc(F)cc2)c1C` [Example 1252] has an IC50 of 1870 nM. Molecule `Cc1nn(Cc2ccc(F)cc2F)c(C)c1NC(=O)c1cc(C(F)(F)F)nc2c(Cl)cc(Cl)cc12` [Example 48, 6,8-dichloro-N-[1-(2,4-difluorobenzyl)-3,5-dimethyl-1H-pyrazol-4-yl]-2-(trifluoromethyl)quinoline-4-carboxamide] has an IC50 of 44.4 nM. Molecule `Cc1nn(Cc2ccc(C(=O)Nc3cc[nH]n3)cc2)c(C)c1NC(=O)c1cc(C(F)(F)F)nc2ccc(Br)cc12` [Example 1055] has an IC50 of 14.4 nM. With `Cc1nn(CC2CCCO2)c(C)c1NC(=O)c1cc(C(F)(F)F)nc2ccc(Br)cc12` (centres unmarked) [Example 1175] the IC50 was 205 nM. `COc1cc(C#N)ccc1Cn1nc(C)c(NC(=O)c2cc(C(N)=O)nc3cccc(F)c23)c1C` [Example 1650] gave an IC50 of 10.3 nM. `CNC(=O)c1nc(Cn2nc(C)c(NC(=O)c3cc(C(F)(F)F)nc4ccc(Br)cc34)c2C)no1` [Example 404, 6-bromo-N-(3,5-dimethyl-1-{[5-(methylcarbamoyl)-1,2,4-oxadiazol-3-yl]methyl}-1H-pyrazol-4-yl)-2-(trifluoromethyl)quinoline-4-carboxamide] was tested, and the IC50 was 1.4 nM. For `Cc1c(NC(=O)c2cc(C(N)=O)nc3cc(F)c(Cl)cc23)c(C(F)(F)F)nn1Cc1cccc(C#N)n1` [Example 1689], the IC50 was 30.9 nM. With `Cc1c(NC(=O)c2cc(C(N)=O)nc3cc(F)c(F)cc23)c(C(F)(F)F)nn1Cc1ccc(C#N)cc1` [Example 216, N^4-[1-(4-cyanobenzyl)-5-methyl-3-(trifluoromethyl)-1H-pyrazol-4-yl]-6,7-difluoroquinoline-2,4-dicarboxamide] the IC50 was 2.1 nM. Molecule `Cc1nn(Cc2ccc(F)c(F)c2)c(C)c1NC(=O)c1cc(C(N)=O)nc2cc(F)ccc12` [Example 1470] has an IC50 of 2.8 nM. Molecule `COc1cc(C(=O)Nc2c(C)nn(Cc3ccc(F)cc3)c2C(=O)N(C)C)c2ccccc2n1` [Example 1245] has an IC50 of 1600 nM. `COc1cc(C(=O)Nc2c(C)nn(Cc3ccncc3C#N)c2C)c2ccccc2n1` [Example 1189] was tested, and the IC50 was 310 nM. Molecule `Cc1c(NC(=O)c2cc(C(N)=O)nc3cc(F)ccc23)c(C(F)(F)F)nn1Cc1c(F)cc(C#N)cc1F` [Example 395, N^4-[1-(4-cyano-2,6-difluorobenzyl)-5-methyl-3-(trifluoromethyl)-1H-pyrazol-4-yl]-7-fluoroquinoline-2,4-dicarboxamide] has an IC50 of 5.3 nM. For `Cc1ccc2nc(C)cc(C(=O)Nc3c(C)nn(Cc4ccc(OC(F)(F)F)cc4)c3C)c2c1` [Example 58, N-{3,5-dimethyl-1-[4-(trifluoromethoxy)benzyl]-1H-pyrazol-4-yl}-2,6-dimethylquinoline-4-carboxamide], the IC50 was 77.1 nM. With `Cc1c(NC(=O)c2cc(C(N)=O)nc3ccccc23)c(C(F)(F)F)nn1Cc1ccc(CC#N)cc1` [Example 1592] the IC50 was 1.3 nM. Work on `Cc1ccc2nc(C)cc(C(=O)Nc3c(C)nn(Cc4ccc(F)cc4)c3C)c2c1` [Example 62, N-[1-(4-fluorobenzyl)-3,5-dimethyl-1H-pyrazol-4-yl]-2,6-dimethylquinoline-4-carboxamide] yielded an IC50 of 127 nM. With `CC(=O)c1cccc(Cn2nc(C(F)(F)F)c(NC(=O)c3cc(C(N)=O)nc4cc(F)ccc34)c2C)c1` [Example 1619] the IC50 was 40.1 nM. `Cc1c(NC(=O)c2cc(C(N)=O)nc3cc(Cl)ccc23)c(C(F)(F)F)nn1Cc1ccc(C#N)cc1` [Example 246, 7-chloro-N^4-[1-(4-cyanobenzyl)-5-methyl-3-(trifluoromethyl)-1H-pyrazol-4-yl]quinoline-2,4-dicarboxamide] showed an IC50 of 2.6 nM. In the case of `Cc1nn(Cc2ccc(C(=O)NCC3CC3)cc2)c(C)c1NC(=O)c1cc(C(F)(F)F)nc2ccc(Br)cc12` [Example 1079], the IC50 is reported as 24.4 nM. Work on `Cc1nn(Cc2c(F)cccc2F)c(C)c1NC(=O)c1cc(C(F)(F)F)nc2c(Cl)cc(Cl)cc12` [Example 20, 6,8-dichloro-N-[1-(2,6-difluorobenzyl)-3,5-dimethyl-1H-pyrazol-4-yl]-2-(trifluoromethyl)quinoline-4-carboxamide] yielded an IC50 of 12.7 nM. `Cc1c(NC(=O)c2cc(S(C)(=O)=NC#N)nc3ccccc23)c(C(F)(F)F)nn1Cc1ccc(C#N)cc1` (racemic) [Example 386, (±)-N-[1-(4-cyanobenzyl)-5-methyl-3-(trifluoromethyl)-1H-pyrazol-4-yl]-2-(N-cyano-S-methylsulfonimidoyl)quinoline-4-carboxamide] gave an IC50 of 43.2 nM. `COC(=O)c1coc(Cn2nc(C(F)(F)F)c(NC(=O)c3cc(C(N)=O)nc4cc(F)ccc34)c2C)n1` [Example 1681] showed an IC50 of 86.7 nM. Work on `Cc1c(NC(=O)c2cc(C(N)=O)nc3cccc(F)c23)c(C(F)(F)F)nn1Cc1ccccc1OC(F)(F)F` [Example 1706] yielded an IC50 of 616 nM. With `Cc1nn(Cc2ccc(F)cc2)c(C)c1NC(=O)c1cc(C2CC2)nc2ccccc12` [Example 19, 2-cyclopropyl-N-[1-(4-fluorobenzyl)-3,5-dimethyl-1H-pyrazol-4-yl]quinoline-4-carboxamide] the IC50 was 12.7 nM. In the case of `Cc1nn(Cc2ccccc2F)c(C)c1NC(=O)c1cc(C(F)(F)F)nc2ccc(Br)cc12` [Example 74, 6-bromo-N-[1-(2-fluorobenzyl)-3,5-dimethyl-1H-pyrazol-4-yl]-2-(trifluoromethyl)quinoline-4-carboxamide], the IC50 is reported as 181 nM. For `COc1cccc(Cn2nc(C)c(NC(=O)c3cc(C(N)=O)nc4ccccc34)c2C)c1` [Example 1452], the IC50 was 8.8 nM. Molecule `Cc1nn(Cc2ccc(C(=O)NCCO)cc2)c(C)c1NC(=O)c1cc(C(N)=O)nc2cc(F)ccc12` [Example 1420] has an IC50 of 354 nM. With `Cc1nn(Cc2ccc(C(=O)NCc3cnn(C)c3)cc2)c(C)c1NC(=O)c1cc(C(F)(F)F)nc2ccc(Br)cc12` [Example 1154] the IC50 was 139 nM. Molecule `CCS(=O)(=O)N1CCC(Cn2nc(C)c(NC(=O)c3cc(C(F)(F)F)nc4ccc(Br)cc34)c2C)CC1` [Example 1533] has an IC50 of 168 nM. Work on `COc1cc(C(=O)Nc2c(C)nn(Cc3ccc(OC(F)(F)F)cc3)c2C)c2ccccc2n1` [Example 23, N-{3,5-dimethyl-1-[4-(trifluoromethoxy)benzyl]-1H-pyrazol-4-yl}-2-methoxyquinoline-4-carboxamide] yielded an IC50 of 15.4 nM. Molecule `Cc1c(NC(=O)c2cc(S(N)(=O)=O)nc3ccccc23)c(C(F)(F)F)nn1Cc1ccc(C#N)cc1` [Example 1572] has an IC50 of 219 nM. Work on `Cc1nn(Cc2ccc(OC(F)(F)F)cc2)c(C)c1NC(=O)c1cc(C(F)(F)F)nc2ccc(Br)cc12` [Example 56, 6-bromo-N-{3,5-dimethyl-1-[4-(trifluoromethoxy)benzyl]-1H-pyrazol-4-yl}-2-(trifluoromethyl)quinoline-4-carboxamide] yielded an IC50 of 60.4 nM. For `Cc1nn(CC2CCN(S(C)(=O)=O)CC2)c(C)c1NC(=O)c1cc(C(F)(F)F)nc2ccc(Br)cc12` [Example 1072], the IC50 was 21 nM. `Cc1nn(CC(=O)Nc2cccc(C#N)c2)c(C)c1NC(=O)c1cc(C(N)=O)nc2ccccc12` [Example 1691] was tested, and the IC50 was 556 nM. `COc1cc(C#N)ccc1Cn1nc(C)c(NC(=O)c2cc(C(N)=O)nc3cc(F)c(Cl)cc23)c1C` [Example 1651] was tested, and the IC50 was 3.2 nM. Molecule `CNC(=O)CN(C)C(=O)c1ccc(Cn2nc(C)c(NC(=O)c3cc(C(F)(F)F)nc4ccc(Br)cc34)c2C)cc1` [Example 1187] has an IC50 of 288 nM. Molecule `COc1ccccc1Cn1nc(C(F)(F)F)c(NC(=O)c2cc(C(N)=O)nc3cccc(F)c23)c1C` [Example 1493] has an IC50 of 69.6 nM. `Cc1nn(CC2CCNCC2)c(C)c1NC(=O)c1cc(C(N)=O)nc2ccccc12` [Example 1241] gave an IC50 of 1530 nM. Molecule `Cc1nn(Cc2ccc(C(=O)N(C)C)cc2)c(C)c1NC(=O)c1cc(C(F)(F)F)nc2ccc(Br)cc12` [Example 143, 6-bromo-N-{1-[4-(dimethylcarbamoyl)benzyl]-3,5-dimethyl-1H-pyrazol-4-yl}-2-(trifluoromethyl)quinoline-4-carboxamide] has an IC50 of 85.3 nM. `Cc1nn(Cc2cc(C3CC3)on2)c(C)c1NC(=O)c1cc(C(N)=O)nc2ccccc12` [Example 419, N^4-{1-[(5-cyclopropyl-1,2-oxazol-3-yl)methyl]-3,5-dimethyl-1H-pyrazol-4-yl}quinoline-2,4-dicarboxamide] showed an IC50 of 4.2 nM. With `Cc1nn(Cc2ccc(C#N)cc2)c(C)c1NC(=O)c1cc(C(=O)NCCN2CCOCC2)nc2cc(F)ccc12` [Example 1402] the IC50 was 238 nM. With `Cc1c(NC(=O)c2cc(C(N)=O)nc3ccccc23)c(C(F)(F)F)nn1Cc1ccc(C#N)cn1` [Example 361, N^4-{1-[(5-cyanopyridin-2-yl)methyl]-5-methyl-3-(trifluoromethyl)-1H-pyrazol-4-yl}quinoline-2,4-dicarboxamide] the IC50 was 4.4 nM. For `Cc1c(NC(=O)c2cc(C(N)=O)nc3cc(F)ccc23)c(C(F)(F)F)nn1Cc1csc(C#N)n1` [Example 1674], the IC50 was 21 nM. In the case of `Cc1nn(Cc2ccc(S(C)(=O)=O)cc2)c(C)c1NC(=O)c1cc(C(N)=O)nc2cccc(F)c12` [Example 1484], the IC50 is reported as 23.4 nM.
